Drawing on US20070049592A1, “Bis-aryl urea compounds and methods of use” (priority 2005, published 2007), this text covers IC50 for 13 compounds.

The assay relates to Human Umbilical Vein Endothelial cells. Description: HUVEC proliferation assay (VEGF). The class given is cell-based. As to conditions: VEGF-stimulated HUVEC proliferation. On the procedure: Human Umbilical Vein Endothelial cells are purchased from Clonetics, Inc., as cryopreserved cells harvested from a pool of donors. These cells, at passage 1, are thawed and expanded in EBM-2 complete medium, until passage 2 or 3. The cells are trypsinized, washed in DMEM+10% FBS+antibiotics, and spun at 1000 rpm for 10 min. Prior to centrifugation of the cells, a small amount is collected for a cell count. After centrifugation, the medium is discarded, and the cells are resuspended in the appropriate volume of DMEM+10% FBS+antibiotics to achieve a concentration of 3×10^5 cells/mL. Another cell count is performed to confirm the cell concentration. The cells are diluted to 3×10^4 cells/mL in DMEM+10% FBS+antibiotics, and 100 μL of cells are added to a 96-well plate. The cells are incubated at 37° C. for 22 h.
Prior to the completion of the incubation period, compound dilutions are prepared. Five-point, five-fold serial dilutions are prepared in DMSO, at concentrations 400-fold greater than the final concentrations desired. 2.5 μL of each compound dilution are diluted further in a total of 1 mL DMEM+10% FBS+antibiotics (400× dilution). Medium containing 0.25% DMSO is also prepared for the 0 μM compound sample. At the 22 h timepoint, the medium is removed from the cells, and 100 μL of each compound dilution is added. The cells are incubated at 37° C. for 2-3 h.
During the compound pre-incubation period, the growth factors are diluted to the appropriate concentrations. Solutions of DMEM+10% FBS+antibiotics, containing either VEGF or bFGF at the following concentrations: 50, 10, 2, 0.4, 0.08, and 0 ng/mL are prepared. For the compound-treated cells, solutions of VEGF at 550 ng/mL or bFGF at 220 ng/mL for 50 ng/mL or 20 ng/mL final concentrations, respectively, are prepared since 10 μL of each will be added to the cells (110 μL final volume). At the appropriate time after adding the compounds, the growth factors are added. VEGF is added to one set of plates, while bFGF is added to another set of plates. For the growth factor control curves, the media on wells B4-G6 of plates 1 and 2 are replaced with media containing VEGF or bFGF at the varying concentrations (50-0 ng/mL). The cells are incubated at 37° C. for an additional 72 h.
At the completion of the 72 h incubation period, the medium is removed, and the cells are washed twice with PBS. After the second wash with PBS, the plates are tapped gently to remove excess PBS, and the cells are placed at −70° C. for at least 30 min. The cells are thawed and analyzed using the CyQuant fluorescent dye (Molecular Probes C-7026), following the manufacturer's recommendations. The plates are read on a Victor/Wallac 1420 workstation at 485 nm/530 nm (excitation/emission). Raw data is collected and analyzed using a 4-parameter fit equation in XLFit. IC50 values are then determined.

A value given as a limit tells only on which side of the number the result lay.

As a reminder, the IC50 is the concentration that inhibits the measured activity by half.

Consider `CNc1cc(N(C)C(=O)Nc2cc(C(=O)Nc3ccc(C(C)C)c(C)c3)ccc2C)ncn1` [Example 19], for which the IC50 is less than 5 µM.
To `CNc1cc(N(C)C(=O)Nc2cc(C(=O)Nc3ccc4c(c3)N(C(C)=O)CC4(C)C)ccc2C)ncn1` [Example 21, N-(1-acetyl-3,3-dimethyl-2,3-dihydro-1H-indol-6-yl)-4-methyl-3-(((methyl(6-(methylamino)-4-pyrimidinyl)amino)carbonyl)amino)benzamide] belongs less than 5 µM.
Then `Cc1ccc(C(=O)Nc2cccc(C(C)C)c2)cc1NC(=O)N(CCCN1CCOCC1)c1ccncn1` [Example 22, 4-methyl-N-(3-(1-methylethyl)phenyl)-3-((((3-(4-morpholinyl)propyl)(4-pyrimidinyl)amino)carbonyl)amino)benzamide], with less than 5 µM.
`CNc1cc(N(C)C(=O)Nc2cc(C(=O)Nc3cccc(N(C)C)c3)ccc2C)ncn1` [Example 26, N-(3-(dimethylamino)phenyl)-4-methyl-3-((methyl(6-(methylamino)-4-pyrimidinyl)amino)carbonylamino)benzamide] gave an IC50 of less than 5 µM.
`CNc1ncnc(N(C)C(=O)Nc2cc(C(=O)Nc3ccc(C(C)(C)C)cc3)ccc2C)n1` [Example 27, N-(4-1,1-(dimethylethyl)phenyl)-4-methyl-3-(((methyl(4-(methylamino)-1,3,5-triazin-2-yl)amino)carbonyl)amino)benzamide] displayed an IC50 of less than 5 µM.
In turn, `CNc1ncnc(N(C)C(=O)Nc2cc(C(=O)Nc3cccc(N(C)C)c3)ccc2C)n1` [Example 28] registered an IC50 of less than 5 µM.
The compound `CNc1nccc(N(CCCN2CCOCC2)C(=O)Nc2cc(C(=O)Nc3cccc(C(C)C)c3)ccc2C)n1` [Example 29, 4-methyl-3-((((2-(methylamino)-4-pyrimidinyl) (3-(4-morpholinyl)propyl)amino)carbonyl)amino)-N-(3-(1-methylethyl)phenyl)benzamide] registered an IC50 of less than 5 µM.
In turn, `CNc1cc(N(C)C(=O)Nc2cc(C(=O)Nc3ccc4sc(C)nc4c3)ccc2C)ncn1` [Example 33, 4-methyl-N-(2-methyl-1,3-benzothiazol-5-yl)-3-(((methyl(6-(methylamino)-4-pyrimidinyl)amino)carbonyl)amino)benzamide] gave an IC50 of less than 5 µM.
`CNc1cc(N(C)C(=O)Nc2cc(C(=O)Nc3cc(C(F)(F)F)ccc3OCCN3CCCC3)ccc2C)ncn1` [Example 34, 4-methyl-3-(((methyl(6-(methylamino)-4-pyrimidinyl)amino)carbonyl)amino)-N-(2-((2-(1-pyrrolidinyl)ethyl)oxy)-5-(trifluoromethyl)phenyl)benzamide] had an IC50 of less than 5 µM.
Then `CNc1ncnc(N(C)C(=O)Nc2cc(C(=O)Nc3ccc4sc(C)nc4c3)ccc2C)n1` [Example 35, 4-methyl-N-(2-methyl-1,3-benzothiazol-5-yl)-3-(((methyl(4-(methylamino)-1,3,5-triazin-2-yl)amino)carbonyl)amino)benzamide], with less than 5 µM; and `CNc1ncnc(N(C)C(=O)Nc2cc(C(=O)Nc3cc(OC)cc(C(F)(F)F)c3)ccc2C)n1` [Example 36, 4-methyl-3-(((methyl(4-(methylamino)-1,3,5-triazin-2-yl)amino)carbonyl)amino)-N-(3-(methyloxy)-5-(trifluoromethyl)phenyl)benzamide], with less than 5 µM; and `CNc1ncnc(N(C)C(=O)Nc2cc(C(=O)Nc3cccc(C(F)(F)F)c3C)ccc2C)n1` [Example 37, 4-methyl-3-(((methyl(4-(methylamino)-1,3,5-triazin-2-yl)amino)carbonyl)amino)-N-(2-methyl-3-(trifluoromethyl)phenyl)benzamide], with less than 5 µM.
Then `CNc1ncnc(N(C)C(=O)Nc2cc(C(=O)Nc3ccc(C(C)C)c(C)c3)ccc2C)n1` [Example 38, 4-methyl-3-(((methyl(4-(methylamino)-1,3,5-triazin-2-yl)amino)carbonyl)amino)-N-(3-methyl-4-(1-methylethyl)phenyl)benzamide], with less than 5 µM.
